Results: ChEMBL document CHEMBL1909046, “DrugMatrix in vitro pharmacology data”

Assays:
Neutrophil elastase = molecular target: T1, Neutrophil elastase (Homo sapiens, UniProt P08246); format: tissue-based;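 further: inhibition of neutrophil elastase enzyme activity, measured with a p-nitroanilide-linked peptide substrate; in other assays of this panel Not Active means under 50% inhibition at 10 µM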
T1 sequence (P08246 whole entry): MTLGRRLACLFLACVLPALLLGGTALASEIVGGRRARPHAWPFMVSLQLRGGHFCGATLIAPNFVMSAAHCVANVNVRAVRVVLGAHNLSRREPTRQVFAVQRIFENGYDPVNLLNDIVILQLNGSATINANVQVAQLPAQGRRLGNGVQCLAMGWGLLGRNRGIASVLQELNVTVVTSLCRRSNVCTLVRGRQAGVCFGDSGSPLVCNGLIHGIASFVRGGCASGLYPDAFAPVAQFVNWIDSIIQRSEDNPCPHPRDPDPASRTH

Estrogen receptor beta = Estrogen receptor beta (Homo sapiens, UniProt Q92731); conditions: sf9; further: in other assays of this panel Not Active means under 50% inhibition at 10 µM
Glycine receptor = Glycine receptor (Rattus norvegicus, UniProt P22771+P24524+P07727+P20781); format: cell membranes, Wistar, Spinal cord, Membrane; further: in other assays of this panel Not Active means under 50% inhibition at 10 µM
[1] = molecular target: Sodium-dependent dopamine transporter (Homo sapiens, UniProt Q01959); assay: DRUGMATRIX: Dopamine Transporter radioligand binding (ligand: [125I] RTI-55); format: cell membranes, CHO-K1, Membrane; conditions: Not Active = under 50% inhibition at 10 µM
[2] = molecular target: Kappa-type opioid receptor (Homo sapiens, UniProt P41145); assay: DRUGMATRIX: Opiate kappa (OP2, KOP) radioligand binding (ligand: [3H] Diprenorphine); format: cell membranes, HEK293, Membrane; conditions: Not Active = under 50% inhibition at 10 µM
[3] = molecular target: Tyrosine-protein kinase Fyn (Homo sapiens, UniProt P06241); assay: biochemical; format: cell-based, Insect cells; conditions: insect cells;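 further: enzymatic inhibition of Fyn kinase activity measured with Poly(Glu:Tyr) as the phosphorylation substrate; in other assays of this panel Not Active means under 50% inhibition at 10 µM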
Glucocorticoid receptor = molecular target: T2, Glucocorticoid receptor (Homo sapiens, UniProt P04150); conditions: hela s3; further: in other assays of this panel Not Active means under 50% inhibition at 10 µM
T2 sequence (P04150 whole entry): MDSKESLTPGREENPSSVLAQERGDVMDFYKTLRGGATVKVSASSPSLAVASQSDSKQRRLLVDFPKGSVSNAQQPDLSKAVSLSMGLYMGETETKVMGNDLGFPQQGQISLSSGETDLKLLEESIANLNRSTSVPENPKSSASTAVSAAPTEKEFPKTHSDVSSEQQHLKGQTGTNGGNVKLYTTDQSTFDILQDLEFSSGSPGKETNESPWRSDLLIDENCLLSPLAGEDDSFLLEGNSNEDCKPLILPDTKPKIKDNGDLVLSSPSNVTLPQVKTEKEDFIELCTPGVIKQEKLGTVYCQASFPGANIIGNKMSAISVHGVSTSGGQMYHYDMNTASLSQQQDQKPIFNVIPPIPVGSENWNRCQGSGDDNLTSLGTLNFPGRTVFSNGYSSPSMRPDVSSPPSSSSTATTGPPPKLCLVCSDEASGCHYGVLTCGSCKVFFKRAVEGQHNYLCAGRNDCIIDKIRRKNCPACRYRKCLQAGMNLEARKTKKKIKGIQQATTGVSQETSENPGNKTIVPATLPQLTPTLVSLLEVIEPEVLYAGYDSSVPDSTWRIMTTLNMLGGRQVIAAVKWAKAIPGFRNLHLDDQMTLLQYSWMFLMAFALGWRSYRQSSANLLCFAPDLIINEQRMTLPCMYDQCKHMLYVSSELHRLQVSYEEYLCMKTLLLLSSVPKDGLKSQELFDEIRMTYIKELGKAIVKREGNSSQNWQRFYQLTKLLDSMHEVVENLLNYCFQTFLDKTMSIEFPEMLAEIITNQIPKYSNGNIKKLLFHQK

[4] = DRUGMATRIX: GABAA, Muscimol, Central radioligand binding (ligand: [3H] Muscimol); format: cell membranes, Rattus norvegicus, Wistar, Brain, Membrane; conditions: Not Active = under 50% inhibition at 10 µM

Sequence of Sodium-dependent dopamine transporter (Q01959 whole entry): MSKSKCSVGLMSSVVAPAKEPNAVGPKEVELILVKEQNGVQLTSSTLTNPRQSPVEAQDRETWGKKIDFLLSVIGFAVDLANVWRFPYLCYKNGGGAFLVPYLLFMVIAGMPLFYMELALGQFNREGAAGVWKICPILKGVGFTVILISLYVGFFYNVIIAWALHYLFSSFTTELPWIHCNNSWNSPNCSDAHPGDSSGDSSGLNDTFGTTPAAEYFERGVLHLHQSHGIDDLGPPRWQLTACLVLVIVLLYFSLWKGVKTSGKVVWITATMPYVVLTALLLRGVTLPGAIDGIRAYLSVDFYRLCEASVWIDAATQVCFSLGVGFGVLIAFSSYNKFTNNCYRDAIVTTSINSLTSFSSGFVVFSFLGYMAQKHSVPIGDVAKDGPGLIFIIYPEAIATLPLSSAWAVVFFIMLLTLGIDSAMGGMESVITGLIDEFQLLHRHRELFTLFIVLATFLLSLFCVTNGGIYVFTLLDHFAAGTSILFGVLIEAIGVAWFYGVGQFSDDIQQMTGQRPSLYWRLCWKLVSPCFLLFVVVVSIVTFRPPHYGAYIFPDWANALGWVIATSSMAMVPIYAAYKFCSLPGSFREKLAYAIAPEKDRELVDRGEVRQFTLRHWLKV
Sequence of Kappa-type opioid receptor (P41145 whole entry): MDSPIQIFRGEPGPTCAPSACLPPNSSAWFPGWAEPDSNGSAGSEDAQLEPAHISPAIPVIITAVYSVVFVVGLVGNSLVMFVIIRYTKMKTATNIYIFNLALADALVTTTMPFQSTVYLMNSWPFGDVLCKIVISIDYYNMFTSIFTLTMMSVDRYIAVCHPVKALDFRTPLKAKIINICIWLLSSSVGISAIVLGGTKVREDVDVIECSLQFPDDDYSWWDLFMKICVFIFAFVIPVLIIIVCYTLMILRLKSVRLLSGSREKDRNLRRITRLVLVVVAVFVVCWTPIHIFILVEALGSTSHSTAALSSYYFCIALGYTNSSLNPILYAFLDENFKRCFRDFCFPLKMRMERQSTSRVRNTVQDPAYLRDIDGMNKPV
Sequence of Tyrosine-protein kinase Fyn (P06241 whole entry): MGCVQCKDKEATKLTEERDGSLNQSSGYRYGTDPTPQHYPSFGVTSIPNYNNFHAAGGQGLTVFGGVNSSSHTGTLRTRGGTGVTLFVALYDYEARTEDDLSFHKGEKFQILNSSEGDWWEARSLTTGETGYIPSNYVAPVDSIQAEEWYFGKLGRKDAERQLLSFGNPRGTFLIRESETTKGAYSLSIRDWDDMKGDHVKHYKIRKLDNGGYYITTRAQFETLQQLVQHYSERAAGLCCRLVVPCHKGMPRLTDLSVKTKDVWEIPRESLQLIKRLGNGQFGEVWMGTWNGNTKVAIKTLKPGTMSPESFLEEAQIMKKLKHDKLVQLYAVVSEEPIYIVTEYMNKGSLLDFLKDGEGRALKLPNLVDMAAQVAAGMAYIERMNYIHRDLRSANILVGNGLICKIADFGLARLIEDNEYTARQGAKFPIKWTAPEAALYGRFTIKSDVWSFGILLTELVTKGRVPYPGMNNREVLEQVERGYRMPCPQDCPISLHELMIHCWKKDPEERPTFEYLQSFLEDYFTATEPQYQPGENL
Sequence of Estrogen receptor beta (Q92731 whole entry): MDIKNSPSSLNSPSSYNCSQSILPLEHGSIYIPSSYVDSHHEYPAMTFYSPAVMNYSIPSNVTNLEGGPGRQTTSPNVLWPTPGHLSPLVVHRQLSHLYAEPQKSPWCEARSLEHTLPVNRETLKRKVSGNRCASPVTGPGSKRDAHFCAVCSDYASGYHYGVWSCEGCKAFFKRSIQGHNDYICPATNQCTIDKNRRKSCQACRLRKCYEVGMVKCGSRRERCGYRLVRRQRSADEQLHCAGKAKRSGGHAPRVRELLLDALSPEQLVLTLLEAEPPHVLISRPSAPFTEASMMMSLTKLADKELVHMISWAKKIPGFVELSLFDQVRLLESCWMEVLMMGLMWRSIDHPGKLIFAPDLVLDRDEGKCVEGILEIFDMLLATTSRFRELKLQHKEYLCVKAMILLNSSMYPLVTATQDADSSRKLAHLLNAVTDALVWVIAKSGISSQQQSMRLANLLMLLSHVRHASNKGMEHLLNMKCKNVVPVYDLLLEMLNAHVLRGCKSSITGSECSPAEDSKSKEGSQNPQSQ

Row | Molecule | IC50 (Neutrophil elastase) | IC50 (Estrogen receptor beta) | IC50 (Glycine receptor) | IC50 ([1]; read-out: IC50) | Ki ([1]; read-out: Ki) | Ki [2] | IC50 ([2]; read-out: IC50) | IC50 [3] | IC50 (Glucocorticoid receptor) | IC50 [4] | Ki [4] | IC50 ([1]; cho-k1) | IC50 ([2]; hek293) | Ki (Neutrophil elastase) | Ki (Estrogen receptor beta) | Ki (Glycine receptor) | Ki ([1]; cho-k1) | Ki [3] | Ki (Glucocorticoid receptor)
1 | Clc1cc(Cl)c(OCC#CI)cc1Cl [HALOPROGIN] | Not Active | Not Active | Not Active | 1970 nM | 1560 nM | 459 nM | 1150 nM | Not Active | Not Active | Not Active | Not Active |  |  |  |  |  |  |  | 
2 | CC1(COc2ccc(CC3SC(=O)NC3=O)cc2)CCCCC1 (stereo unspecified) [CIGLITAZONE] | Not Active | Not Active | Not Active |  |  |  |  | Not Active | Not Active | Not Active | Not Active | Not Active | Not Active |  |  |  |  |  | 
3 | Cc1ccnc2c1NC(=O)c1cccnc1N2C1CC1 [NEVIRAPINE] | Not Active | Not Active | Not Active |  |  |  |  | Not Active | Not Active | Not Active | Not Active | Not Active | Not Active |  |  |  |  |  | 
4 | CN(Cc1cc(Br)cc(Br)c1N)C1CCCCC1 [BROMHEXINE] | Not Active | Not Active | Not Active |  |  |  |  | Not Active | Not Active | Not Active | Not Active | Not Active | Not Active |  |  |  |  |  | 
5 | COPPER(II) OXIDE | Not Active | Not Active | Not Active |  |  |  |  | Not Active | Not Active | Not Active | Not Active | Not Active |  | Not Active | Not Active | Not Active | Not Active | Not Active | Not Active
6 | COc1ccc(C[C@H](N)C(=O)N[C@H]2[C@@H](O)[C@H](n3cnc4c(N(C)C)ncnc43)O[C@@H]2CO)cc1 [PUROMYCIN] | Not Active | Not Active | Not Active |  |  |  |  | Not Active | Not Active | Not Active | Not Active | Not Active | Not Active |  |  |  |  |  | 
7 | OC[C@H]1OC2C3[C@@H](CO)OC(O[C@H]4[C@H](O)[C@@H](O)[C@@H](O[C@H]5[C@H](O)[C@@H](O)[C@@H](O[C@H]6[C@H](O)[C@@H](O)[C@@H](O[C@H]7[C@H](O)[C@@H](O)[C@@H](O[C@H]8[C@H](O)[C@@H](O)[C@@H](O[C@H]9[C@H](O)[C@@H](O)C(OC1[C@H](O)[C@H]2O)O[C@@H]9CO)O[C@@H]8CO)O[C@@H]7CO)O[C@@H]6CO)O[C@@H]5CO)O[C@@H]4CO)[C@H](O)[C@H]3O | Not Active | Not Active | Not Active |  |  |  |  | Not Active | Not Active | Not Active | Not Active | Not Active | Not Active |  |  |  |  |  | 
8 | C[N+](C)(C)CCOP(=O)([O-])OC[C@H](O)CO | Not Active | Not Active | Not Active |  |  |  |  | Not Active | Not Active | Not Active | Not Active | Not Active | Not Active |  |  |  |  |  | 
9 | O=C(O)CNCP(=O)(O)O [GLYPHOSATE] | Not Active | Not Active | Not Active |  |  |  |  | Not Active | Not Active | Not Active | Not Active | Not Active |  |  |  |  |  |  | 
10 | CHROMIC CHLORIDE | Not Active | Not Active | Not Active |  |  |  |  |  | Not Active | Not Active | Not Active | Not Active |  | Not Active | Not Active | Not Active | Not Active |  | Not Active
11 | Cl.NC[C@H]1CC[C@H](C(=O)Oc2ccc(CCC(=O)O)cc2)CC1 [CETRAXATE HYDROCHLORIDE] | Not Active | Not Active | Not Active |  |  |  |  | Not Active |  | Not Active | Not Active | Not Active | Not Active |  |  |  |  |  | 
12 | O=C(NCCN1CCOCC1)c1ccc(Cl)cc1 [MOCLOBEMIDE] | Not Active | Not Active | Not Active |  |  |  |  | Not Active |  | Not Active | Not Active | Not Active | Not Active |  |  |  |  |  | 
13 | CARBOXYMETHYLCELLULOSE | Not Active | Not Active | Not Active |  |  |  |  | Not Active | Not Active | Not Active | Not Active | Not Active |  | Not Active | Not Active | Not Active | Not Active | Not Active | Not Active
14 | CCC1(c2ccccc2)C(=O)NC(=O)NC1=O [PHENOBARBITAL] | Not Active | Not Active | Not Active |  |  |  |  | Not Active |  | Not Active | Not Active | Not Active | Not Active |  |  |  |  |  | 
15 | C=CCN1CC[C@]23c4c5ccc(O)c4O[C@H]2/C(=N/N=C2\CC[C@@]4(O)[C@H]6Cc7ccc(O)c8c7[C@@]4(CCN6CC=C)[C@H]2O8)CC[C@@]3(O)[C@H]1C5 [NALOXONAZINE] | Not Active | Not Active | Not Active |  |  |  |  | Not Active | Not Active | Not Active | Not Active | Not Active |  |  |  |  |  |  | 
16 | POVIDONE | Not Active | Not Active | Not Active |  |  |  |  | Not Active | Not Active | Not Active | Not Active | Not Active |  | Not Active | Not Active | Not Active | Not Active | Not Active | Not Active
17 | c1ccc2c(c1)Nc1ccccc1S2 [PHENOTHIAZINE] | Not Active | Not Active | Not Active | 18600 nM | 14800 nM |  |  | Not Active |  | Not Active | Not Active |  | Not Active |  |  |  |  |  | 
18 | CC[C@H]1OC(=O)[C@H](C)[C@@H](O[C@H]2C[C@@](C)(OC)[C@@H](O)[C@H](C)O2)[C@H](C)[C@@H](O[C@@H]2O[C@H](C)C[C@H](N(C)C)[C@H]2O)[C@](C)(O)C[C@@H](C)C(=O)[C@H](C)[C@@H](O)[C@]1(C)O [ERYTHROMYCIN] | Not Active | Not Active | Not Active |  |  |  |  | Not Active |  | Not Active | Not Active | Not Active | Not Active |  |  |  |  |  | 
19 | COc1cc([C@@H]2c3cc4c(cc3[C@H](O)[C@H]3COC(=O)[C@H]23)OCO4)cc(OC)c1OC [PODOFILOX] | Not Active | Not Active | Not Active |  |  |  |  | Not Active | Not Active | Not Active | Not Active | Not Active |  |  |  |  |  |  | 
20 | O=C(O)COC(=O)Cc1ccccc1Nc1c(Cl)cccc1Cl [ACECLOFENAC] | Not Active | Not Active | Not Active |  |  |  |  | Not Active |  | Not Active | Not Active | Not Active | Not Active |  |  |  |  |  | 
21 | C#C[C@]1(O)CC[C@H]2[C@@H]3CCC4=CC(=O)CC[C@@H]4[C@H]3CC[C@@]21C [NORETHINDRONE] | Not Active | Not Active | Not Active |  |  |  |  | Not Active |  | Not Active | Not Active | Not Active | Not Active |  |  |  |  |  | 
22 | CC(CN1c2ccccc2Sc2ccccc21)N(C)C (stereo unspecified) [PROMETHAZINE] | Not Active | Not Active | Not Active |  |  |  |  | Not Active |  | Not Active | Not Active | Not Active | Not Active |  |  |  |  |  | 
23 | COc1cc(NC(C)CCCN)c2ncccc2c1 (stereo unspecified) [PRIMAQUINE] | Not Active | Not Active | Not Active |  |  |  |  | Not Active |  | Not Active | Not Active | Not Active | Not Active |  |  |  |  |  | 
